Data reported in ChEMBL document CHEMBL1128137, “A novel series of highly potent 5-lipoxygenase inhibitors; 2-aryldienylbenzoxazoles” (Bioorg Med Chem Lett, 1995).

These compounds were tested against T1, Polyunsaturated fatty acid 5-lipoxygenase (Rattus norvegicus, UniProt P12527) (assay: Inhibition of 5-lipoxygenase of rat basophilic leukemia (RBL) cell cytosolic enzymes).
T1 sequence (P12527 whole entry): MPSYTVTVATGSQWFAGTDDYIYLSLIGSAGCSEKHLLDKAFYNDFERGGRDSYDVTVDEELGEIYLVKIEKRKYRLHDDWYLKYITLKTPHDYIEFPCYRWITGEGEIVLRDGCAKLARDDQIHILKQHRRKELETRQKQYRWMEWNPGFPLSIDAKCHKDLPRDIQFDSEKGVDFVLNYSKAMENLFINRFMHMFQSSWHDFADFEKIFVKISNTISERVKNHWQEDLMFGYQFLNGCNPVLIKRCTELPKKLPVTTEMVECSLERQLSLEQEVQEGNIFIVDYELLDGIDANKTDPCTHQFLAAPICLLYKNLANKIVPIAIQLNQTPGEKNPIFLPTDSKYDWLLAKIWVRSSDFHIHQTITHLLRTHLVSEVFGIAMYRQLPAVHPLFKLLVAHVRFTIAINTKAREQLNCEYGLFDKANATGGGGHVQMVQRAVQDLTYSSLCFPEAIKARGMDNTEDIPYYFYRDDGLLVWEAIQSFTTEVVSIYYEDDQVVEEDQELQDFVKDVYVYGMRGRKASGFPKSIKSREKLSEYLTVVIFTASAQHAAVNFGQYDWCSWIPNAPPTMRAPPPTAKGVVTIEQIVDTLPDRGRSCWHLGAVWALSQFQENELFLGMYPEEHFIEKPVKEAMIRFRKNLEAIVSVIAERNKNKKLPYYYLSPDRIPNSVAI
Set-up: species or system RBL-1

SMILES | IC50 [nM]
CCOC(=O)c1ccc2oc(/C=C/C=C/c3ccc(O)c(O)c3)nc2c1 | 20
COc1cc(/C=C/C=C/c2nc3cc(CO)ccc3o2)ccc1O | 260
COc1cc(/C=C/C=C/c2nc3ncccc3o2)ccc1O | 370
COc1cc(/C=C/C=C/c2nc3c(ccc4ccccc43)o2)ccc1O | 170
Oc1ccc(/C=C/C=C/c2nc3ccccc3o2)cc1O | 30
COc1cc(/C=C/C=C/c2nc3ccc(CO)cc3o2)ccc1O | 300
CCOC(=O)c1ccc2oc(/C=C/C=C/c3ccc(O)c(OC)c3)nc2c1 | 250
CCOC(=O)c1ccc2nc(/C=C/C=C/c3ccc(O)c(OC)c3)oc2c1 | 130
CCOC(=O)/C=C/c1ccc(O)c(O)c1 [ETHYL CAFFEATE] | 1150
COc1cc(/C=C/C=C/c2nc3cc(C(=O)O)ccc3o2)ccc1O | 5800
COc1cc(/C=C/C=C/c2nc3cc(C)ccc3o2)ccc1O | 290
COc1cc(/C=C/C=C/c2nc3cc(Cl)ccc3o2)ccc1O | 380
COc1cc(/C=C/C=C/c2nc3ccccc3o2)ccc1O | 330
COc1cc(/C=C/C=C/C(=O)NCCN2CCC(OC(c3ccccc3)c3ccccc3)CC2)ccc1O | 150
